Reference: US5239084A, “Substituted aminoalkyl biphenyl compounds” (Hoffmann-La Roche Inc., priority 1990, dated 1993)
“And” between values parts separate entries of the source, which are not always exact repeats. Equal entries are not always repeated. Structures can show the parent of a compound that is named as a salt. Where two headings read alike, the source gives them in different places.

What was measured:
[1] = acute toxicity, single oral administration to mice; details: mouse, in vivo
Description: The IC50 values were determined graphically and were given in μg of test substance per mL. Table I hereinafter contains IC50 values determined in the above test for representative members of the class of compound defined by formula I as well as concerning the acute toxicity in the case of single oral administration to mice (LD50 in mg/kg).

[2] = system: C. albicans B5; assay: agar dilution method, C. albicans B5; assay type: cell-based, Candida albicans; details: for MIC: Candida albicans, B5, 48 h, alone, 37° C., 2 days
[3] = molecular target: T1, 2,3-epoxysqualene-lanosterol cyclase (Candida albicans, UniProt Q04782); assay: inhibition of 2,3-epoxysqualene-lanosterol cyclase from Candida albicans (cell-free extract, 14C-squalene epoxide); assay type: biochemical
T1 construct: there was obtained a cell-free extract (CFE) as the supernatant; endogenous in cells; host or cells: Candida albicans culture, protoplasts ruptured, cell-free extract (10000 g supernatant)
T1 sequence (Q04782 whole entry): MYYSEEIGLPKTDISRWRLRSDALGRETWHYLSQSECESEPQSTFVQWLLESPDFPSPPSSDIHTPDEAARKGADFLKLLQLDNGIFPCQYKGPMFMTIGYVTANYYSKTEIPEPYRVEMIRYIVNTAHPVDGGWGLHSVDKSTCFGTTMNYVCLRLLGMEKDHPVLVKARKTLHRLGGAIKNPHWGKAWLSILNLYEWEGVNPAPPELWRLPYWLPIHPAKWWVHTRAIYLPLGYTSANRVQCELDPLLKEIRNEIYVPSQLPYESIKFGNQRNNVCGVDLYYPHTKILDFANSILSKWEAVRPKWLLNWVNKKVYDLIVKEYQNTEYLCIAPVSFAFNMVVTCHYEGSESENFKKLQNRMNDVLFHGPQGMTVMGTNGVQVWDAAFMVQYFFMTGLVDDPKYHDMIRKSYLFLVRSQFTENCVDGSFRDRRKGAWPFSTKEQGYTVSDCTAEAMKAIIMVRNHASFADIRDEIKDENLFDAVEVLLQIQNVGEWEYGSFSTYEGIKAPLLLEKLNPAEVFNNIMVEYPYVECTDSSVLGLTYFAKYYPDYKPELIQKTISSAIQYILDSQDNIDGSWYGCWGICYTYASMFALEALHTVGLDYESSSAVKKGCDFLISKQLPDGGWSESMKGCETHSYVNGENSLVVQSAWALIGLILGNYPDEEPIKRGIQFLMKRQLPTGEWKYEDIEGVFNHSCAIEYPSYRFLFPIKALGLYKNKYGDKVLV

[4] = system: C. albicans H29; assay: agar dilution method, C. albicans H29; assay type: cell-based, Candida albicans; details: for MIC: Candida albicans, H29, 48 h, alone, 37° C., 2 days; for FIC: synergistic when FIC <0.5
[5] = system: Candida albicans; assay: agar dilution method, synergism with sterol biosynthesis inhibitors; assay type: cell-based; details: in combination with ketoconazole or terbinafine; synergistic when FIC <0.5
[6] = system: C. albicans 3152; assay: agar dilution method, C. albicans 3152; assay type: cell-based, Candida albicans
[7] = system: C. albicans B4; assay: agar dilution method, C. albicans B4; assay type: cell-based, Candida albicans; details: for MIC: Candida albicans, B4, 48 h, alone, 37° C., 2 days
[8] = system: C. albicans H12; assay: agar dilution method, C. albicans H12; assay type: cell-based, Candida albicans; details: for MIC: Candida albicans, H12, 48 h, alone, 37° C., 2 days
[9] = system: C. albicans 3153; assay: agar dilution method, C. albicans 3153; assay type: cell-based, Candida albicans; details: for MIC: Candida albicans, 3153, 48 h, alone, 37° C., 2 days
[10] = in combination with ketoconazole, hydrochloride
[11] = in combination with ketoconazole, synergistic when FIC <0.5, hydrochloride
[12] = in combination with terbinafine
[13] = in combination with terbinafine, synergistic when FIC <0.5
[14] = in combination with ketoconazole
[15] = in combination with ketoconazole, synergistic when FIC <0.5

C=CCN(C)Cc1ccc(-c2ccc(C(=O)c3ccccc3)cc2)cc1 [Compound 14, 4'-[(allylmethylamino)methyl-4-biphenylylphenyl ketone hydrochloride]
LD50 [1]: > 4000 mg/kg | MIC [2]: 1 µg/mL | MIC of compound in combination [2, 10]: 0.06 µg/mL and 0.12 µg/mL | FIC [2, 11]: 0.125 and 0.25 | MIC of compound in combination [2, 12]: 0.25 µg/mL | FIC [2, 13]: 0.375 | IC50 [3]: 0.0527 µM | MIC [4]: 1 µg/mL | MIC of compound in combination [4, 10]: 0.06 µg/mL and 0.12 µg/mL | MIC of compound in combination [4, 12]: 0.25 µg/mL | FIC [4, 12]: 0.375 | synergistic activity [5]: confirm the synergistic activity | MIC ([6]; Candida albicans, 48 h, alone, 37° C., 2 days): 1 µg/mL | MIC of compound in combination [6, 10]: 0.06 µg/mL and 0.12 µg/mL | FIC [6, 11]: 0.187 and 0.156 | MIC [7]: 2 µg/mL | MIC of compound in combination [7, 10]: 0.12 µg/mL and 0.06 µg/mL | FIC [7, 11]: 0.078 and 0.040 | MIC of compound in combination [7, 12]: 1 µg/mL | FIC [7, 13]: 0.531 | MIC [8]: 1 µg/mL | MIC of compound in combination [8, 10]: 0.12 µg/mL and 0.06 µg/mL | FIC [8, 11]: 0.133 and 0.125 | MIC of compound in combination [8, 12]: 0.5 µg/mL | FIC [8, 13]: 0.516 | MIC [9]: 1 µg/mL | MIC of compound in combination [9, 12]: 0.25 µg/mL | FIC ([9]; in combination with terbinafine, synergistic when FIC <0.5, hydrochloride): 0.281 and 0.561

C=CCN(C)Cc1ccc(-c2ccc(C(=O)c3ccc(Br)cc3)cc2)cc1 [Compound 20, 4'-[[(Allylmethylamino)methyl]-4-biphenylylp-bromophenyl ketone hydrochloride]
MIC [2]: 1 µg/mL | MIC of compound in combination [2, 14]: 0.25 µg/mL | FIC [2, 15]: 0.25 | MIC of compound in combination [2, 12]: 0.25 µg/mL | FIC [2, 13]: 0.5 | IC50 ([3]; cell-free extract, pH 6.9, 30° C., 1 hour, read-out: IC50 (converted)): 0.0309 µM | MIC [4]: 1 µg/mL | MIC of compound in combination [4, 14]: 0.25 µg/mL | FIC [4, 14]: 0.375 | MIC of compound in combination [4, 12]: 0.25 µg/mL | FIC [4, 12]: 0.50 | synergistic activity [5]: confirm the synergistic activity | MIC [7]: 2 µg/mL | MIC of compound in combination [7, 14]: 0.12 µg/mL | FIC [7, 15]: 0.093 | MIC of compound in combination [7, 12]: 0.50 µg/mL | FIC [7, 13]: 0.266 | MIC [8]: 2 µg/mL | FIC [8, 11]: 0.156 and 0.078 | MIC of compound in combination [8, 12]: 0.25 µg/mL | FIC [8, 13]: 0.25 | MIC [9]: 1 µg/mL | MIC of compound in combination [9, 14]: 0.12 µg/mL | FIC [9, 15]: 0.156 | MIC of compound in combination [9, 12]: 0.12 µg/mL | FIC [9, 13]: 0.375
